Data set [1] has as its system Hepatocyte. In words: Cytotoxicity against Sprague-Dawley rat primary hepatocytes after 24 hrs by MTT assay. The format is cell-based. A general note: Formazan colour is commonly taken as a measure of viable cells.
The subject of data set [2] is HepG2. Put plainly: Cytotoxicity against human HepG2 cells after 24 hrs by MTT assay. The format is functional, cell-based.
For data set [3], the system named is HeLa. In words: Cytotoxicity against human HeLa cells after 24 hrs by MTT assay. The format is functional, cell-based.
Data set [4] deals with Hepatocyte. Put plainly: Cytotoxicity against rat primary hepatocytes at 300 ug/ml after 24 hrs by MTT assay. Type of data set: cell-based.
Data set [5] has as its system HepG2. Put plainly: Cytotoxicity against human HepG2 cells at 300 ug/ml after 24 hrs by MTT assay. Type of data set: functional, cell-based.
Data set [6] has as its system HeLa. Put plainly: Cytotoxicity against human HeLa cells at 300 ug/ml after 24 hrs by MTT assay. Type of data set: functional, cell-based.
In data set [7] the test system is Hepatocyte. In words: Antioxidant effect in Sprague-Dawley rat primary hepatocytes assessed as decrease in tert-butyl hydroperoxide-induced malondialdehyde accumulation administered 50 ug/ml for 7 hrs followed by combined exposure of tert-butyl hydroperoxide and drug for 12 hrs. Type of data set: functional. On the set-up: scale not given: the % may be the effect or the level left.

In data set [8] the test system is Hepatocyte. In words: Antioxidant effect in Sprague-Dawley rat primary hepatocytes assessed as decrease in tert-butyl hydroperoxide-induced malondialdehyde accumulation administered 100 ug/ml for 7 hrs followed by combined exposure of tert-butyl hydroperoxide and drug for 12 hrs. Type of data set: functional. More on the design: scale not given: the % may be the effect or the level left.

The test system of data set [9] is Hepatocyte. Put plainly: Antioxidant effect in Sprague-Dawley rat primary hepatocytes assessed as prevention of tert-butyl hydroperoxide-induced reduction in glutathione content administered 50 ug/ml for 7 hrs followed by combined exposure of tert-butyl hydroperoxide and drug for 12 hrs. The format is functional. More on the design: scale not given: the % may be the effect or the level left.

Data set [10] deals with Hepatocyte. Put plainly: Antioxidant effect in Sprague-Dawley rat primary hepatocytes assessed as prevention of tert-butyl hydroperoxide-induced reduction in glutathione content administered 100 ug/ml for 7 hrs followed by combined exposure of tert-butyl hydroperoxide and drug for 12 hrs. On the set-up: scale not given: the % may be the effect or the level left. Type of data set: functional.

Setting [11] is: Homo sapiens, HepG2, 24 h, read-out: IC50.
Where [12] appears, read: Homo sapiens, HeLa, 24 h, read-out: IC50.

Converted amounts (≈) assume the structure as drawn.

In the case of `c1ccc2c(c1)C[C@H]1NCCc3cc4c(c-2c31)OCO4` [ANONAINE], the values for the IC50 in the data set with Hepatocyte [1], with HepG2 [2] (setting [11]) and in the data set on HeLa [3] (setting [12]) were 70.3 µg/mL (≈ 265 µM), 33.5 µg/mL (≈ 126 µM) and 24.8 µg/mL (≈ 93.5 µM), respectively.

For `COc1cc2c3cc1Oc1c(O)c(OC)cc4c1[C@H](Cc1ccc(OC)c(c1)-c1cc(ccc1O)C[C@H]3N(C)CC2)N(C)CC4` [ANTIOQUINE], the IC50 (commonly the concentration that gives 50% inhibition) with Hepatocyte [1] stood at 4.06 µg/mL (≈ 6.67 µM); with HepG2 [2] (setting [11]), 460 µg/mL (≈ 756 µM); with HeLa [3] (setting [12]) it was 548 µg/mL (≈ 901 µM).

On to `COc1ccc2cc3[n+](cc2c1OC)CCc1cc2c(cc1-3)OCO2.[Cl-]` [BERBERINE CHLORIDE], for which the IC50 was 26.5 µg/mL in the data set on Hepatocyte [1], 146 µg/mL with HepG2 [2] (hepg2) and 138 µg/mL in the data set with HeLa [3] (hela).

`COc1ccc2c(c1OC)CN1CCc3cc4c(cc3[C@@H]1C2)OCO4` [CANADINE]: the Activity entry with Hepatocyte [4] is “Non-toxic”; in the data set on HepG2 [5], “Not toxic”; with HeLa [6], “Not toxic”; in the data set with Hepatocyte [7], above 80%; in the data set with Hepatocyte [8] it was above 80%; in the data set on Hepatocyte [9], above 95%. For the same compound, the Activity in the data set on Hepatocyte [10] is listed as above 95%.

Values taken from ChEMBL document CHEMBL1157160, “Antioxidant and cytotoxic activities of canadine: biological effects and structural aspects” (Bioorg Med Chem, 2008).
